41 compounds from patent publication USRE35321E, “Tetrazoleacetic acid derivatives having aldose reductase inhibitory activity” (Wakamoto Pharmaceutical Co., Ltd., priority 1990, dated 1996) can be followed below.

Molecules are shown by their SMILES.

In this assay the target is T1, aldose reductase (Rattus norvegicus, UniProt P07943).
T1 construct: Then their crystalline lenses were immediately removed and stored at -80° C; The lenses were homogenized; from tissue; host or cells: crystalline lenses of six-week-old male SD rats
Nature of the assay: Aldose reductase inhibitory effect (enzyme from crystalline lenses, DL-glyceraldehyde substrate). The format is biochemical, rat (male SD). Conditions: 10 mM DL-glyceraldehyde, pH 6.2, 30° C. Here is the method:
Six-weeks-old male SD rates were anesthetized with ether and killed. Then their crystalline lenses were immediately removed and stored at -80° C. […] All operations were conducted at 4° C. and the enzyme solution was stored at -80° C.
More specifically, 0.1 ml of DL glyceraldehyde (final concentration: 10 mM) was added to 0.9 ml of 100 mM sodium potassium phosphate buffer (pH 6.2) which contained lithium sulfate (final concentration: 400 mM), reduced nicotinamide adenine dinucleotide phosphate (final concentration: 0.15 mM), the enzyme solution, and the compound to be evaluated (final concentration: 10^-6 M, 10^-7 M or […]), and then the reaction was conducted at 30° C. for 5 minutes. During the reaction, the change in the absorbance at 340 nm with time was monitored. The maximum reducing rate of the absorbance (U) during the reaction was determined. By subtracting, from this value, the maximum reducing rate (Uo) at 340 nm of the reaction solution before the addition of the substrate (DL-glyceraldehyde), the reaction rate (V=U-Uo) was calculated as a true reaction rate in the presence of the compound to be tested.
The same procedure was repeated except for the absence of the compound to be tested. A true reaction rate (Vo) in case the enzyme was not inhibited was calculated (Vo =U'-Uo '). The aldose reductase inhibitory activity of the test compounds was determined according to the following formula:
Rate of Inhibition (%)=(Vo -V)/Vo ×100
Regarding `COC(=O)Cn1nnnc1-c1ccsc1` [Example 1-5, methyl [5-(3-thienyl)tetrazol-1-yl] acetate], inhibition was half-maximal at 960 nM (IC50).
With `COC(=O)Cn1nnnc1-c1ccoc1` [Example 1-7, methyl (5-(3-furyl)tetrazol-1-yl] acetate], it took 740 nM to reach half-maximal inhibition (IC50).
The value for `COC(=O)Cn1nnnc1-c1sccc1NS(=O)(=O)c1ccccc1` [Example 1-27, methyl [5-(3-phenylsulfonylamino-2-thienyl)tetrazol-1-yl acetate] was 230 nM.
The same measure for `Cc1csc(-c2nnnn2CC(=O)O)c1` [Example 2-3, [5-(4-methyl-2-thienyl)tetrazol-1-yl] acetic acid]: 24 nM; for `Cc1ccc(-c2nnnn2CC(=O)O)s1` [Example 2-4, [5-(5-methyl-2-thienyl)tetrazol-1-yl] acetic acid]: 23 nM.
The value for `O=C(O)Cn1nnnc1-c1ccco1` [Example 2-6, [5-(2-furyl)tetrazol-1-yl] acetic acid] was 60 nM.
The compound `CCc1ccc(-c2nnnn2CC(=O)O)s1` [Example 2-8, [5-(5-ethyl-2-thienyl)tetrazol-1-yl] acetic acid] yielded an IC50 of 21 nM.
The value for `O=C(O)Cn1nnnc1-c1ccc(Cc2ccccc2)s1` [Example 2-9, [5-(5-benzyl-2-thienyl)tetrazol-1-yl] acetic acid] was 20 nM; that for `CSc1ccc(-c2nnnn2CC(=O)O)s1` [Example 2-10] was 20 nM; that for `O=C(O)Cn1nnnc1-c1ccc(Br)s1` [Example 2-11, [5-(5-bromo-1-thienyl)tetrazol-1-yl] acetic acid] was 19 nM.
Take `Cc1sccc1-c1nnnn1CC(=O)O` [Example 2-12, [5-(2-methyl-3-thienyl)tetrazol-1-yl] acetic acid]: the IC50 was found to be 10 nM. Compared with the last compound, the IC50 is about 1.9-fold lower.
The compound `O=C(O)Cn1nnnc1-c1ccc(CBr)s1` [Example 2-13, [5-(5-bromomethyl-2-thienyl)tetrazol-1-yl] acetic acid] registered an IC50 of 25 nM.
Consider `O=C(O)Cn1nnnc1-c1ccc(-c2ccccc2)s1` [Example 2-14, [5-(5-phenyl-2-thienyl)tetrazol-1-yl] acetic acid], for which the IC50 amounted to 21 nM.
The same measure for `COc1ccsc1-c1nnnn1CC(=O)O` [Example 2-15, [5-(3-methoxy-2-thienyl)tetrazol-1-yl] acetic acid]: 29 nM; for `CCCCOc1ccsc1-c1nnnn1CC(=O)O` [Example 2-16, [5-(3-butoxy-2-thienyl)tetrazol-1-yl] acetic acid]: 31 nM; for `CC(=O)Nc1ccsc1-c1nnnn1CC(=O)O` [Example 2-17]: 28 nM.
As for `CCCC(=O)Nc1ccsc1-c1nnnn1CC(=O)O` [Example 2-18, [5-(3-propylcarbonylamino-2-thienyl)tetrazol-1-yl] acetic acid], the IC50 was found to be 20 nM.
The value for `O=C(O)Cn1nnnc1-c1sccc1NC(=O)CCc1ccccc1` [Example 2-19, [5-(3-phenethylcarbonylamino-2-thienyl)tetrazol-1-yl] acetic acid] was 24 nM; that for `CCCCc1ccc(-c2nnnn2CC(=O)O)s1` [Example 2-20, [5-(5-butyl-2-thienyl)tetrazol-1-yl] acetic acid] was 23 nM.
On to `O=C(O)Cn1nnnc1-c1ccc(CCCc2ccccc2)s1` [Example 2-21, [5-(5-phenylpropyl-2-thienyl)tetrazol-1-yl] acetate acid], for which the IC50 is 28 nM.
As for `COCc1ccc(-c2nnnn2CC(=O)O)s1` [Example 2-22, [5-(5-methoxymethyl-2-thienyl)tetrazol-1-yl] acetic acid], the IC50 is 31 nM.
Turning to `CCCCOCc1ccc(-c2nnnn2CC(=O)O)s1` [Example 2-23, [5-(5-butoxymethyl-2-thienyl)tetrazol-1-yl] acetic acid], the IC50 was determined as 25 nM.
Compound `O=C(O)Cn1nnnc1-c1ccsc1Br` [Example 2-24, [5-(2-bromo-3-thienyl)tetrazol-1-yl] acetic acid] returned an IC50 of 38 nM.
On to `CSc1sccc1-c1nnnn1CC(=O)O` [Example 2-26, [5-(2-methylthio-3-thienyl)tetrazol-1-yl] acetic acid], for which the IC50 turned out to be 31 nM. This IC50 and that of the compound before are within 1.5-fold of each other.
For the compound `Cc1ccc(-c2nnnn2CC(=O)O)o1` [Example 2-27, [5-(5-methyl-2-furyl)tetrazol-1-yl] acetic acid], it took 150 nM to reach half-maximal inhibition (IC50).
With `CCCCc1ccc(-c2nnnn2CC(=O)O)o1` [Example 2-28, [5-(5-butyl-2-furyl)tetrazol1-yl-] acetic acid], the midpoint of inhibition, the IC50, lay at 130 nM. The IC50 values of the last two compounds are within 1.5-fold of each other.
`O=C(O)Cn1nnnc1-c1ccc(Br)o1` [Example 2-29, [5-(5-bromo-2-furyl)tetrazol-1-yl] acetic acid] came in with an IC50 of 160 nM.
The same measure for `CSc1ccc(-c2nnnn2CC(=O)O)o1` [Example 2-30, [5-(5-methylthio-2-furyl)tetrazol-1-yl] acetic acid]: 110 nM.
`O=C(O)Cn1nnnc1-c1ccoc1Br` [Example 2-31, [5-(2-bromo-3-furyl)tetrazol-1-yl] scetic acid] displayed an IC50 of 85 nM.
Compound `CSc1occc1-c1nnnn1CC(=O)O` [Example 2-32, [5-(2-methylthio-3-furyl)tetrazol-1-yl] acetic acid] gave an IC50 of 35 nM. This IC50 lies about 2.4-fold lower than the previous one.
In turn, `O=C(O)Cn1nnnc1-c1ccsc1Sc1ccccc1` [Example 2-33, [5-(2-phenylthio-3-thienyl)tetrazol-1-yl] acetic acid] yielded an IC50 of 24 nM. This IC50 and that of the compound before are within 1.5-fold of each other.
The same measure for `O=C(O)Cn1nnnc1-c1ccc(Sc2ccccc2)s1` [Example 2-34, [5-(5-phenylthio-2-thienyl)tetrazol-1-yl] acetic acid]: 26 nM; for `CCN(CC)S(=O)(=O)c1ccc(-c2nnnn2CC(=O)O)s1` [Example 2-35, [5-[5-(N,N-diethylaminosulfonyl)-2-thienyl]tetrazol-1-yl] acetic acid]: 390 nM; for `CCCCN(CCCC)S(=O)(=O)c1ccc(-c2nnnn2CC(=O)O)s1` [Example 2-36]: 85 nM.
`O=C(O)Cn1nnnc1-c1ccc(S(=O)(=O)N2CCCCC2)s1` [Example 2-37, [5-(5-piperidinosulfonyl2-thienyl)tetrazol-1-yl] acetic acid] came in with an IC50 of 230 nM.
`CCN(CC)S(=O)(=O)c1sccc1-c1nnnn1CC(=O)O` [Example 2-38, [5-[2-(N,N-diethylaminosulfonyl)-3-thienyl)tetrazol-1-yl] acetic acid] displayed an IC50 of 460 nM.
As for `CS(=O)(=O)Nc1ccsc1-c1nnnn1CC(=O)O` [Example 2-39, [5-(3-methylsulfonylamino-2-thienyl)tetrazol-1-yl] acetic acid], the IC50 was found to be 28 nM.
The compound `CCCCS(=O)(=O)Nc1ccsc1-c1nnnn1CC(=O)O` [Example 2-40, [5-(3-butylsulfonylamino-2-thienyl)tetrazol-1-yl] acetic acid] showed an IC50 of 16 nM.
The value for `O=C(O)Cn1nnnc1-c1sccc1NS(=O)(=O)c1ccccc1` [Example 2-41, [5-(3-phenylsulfonylamino-2-thienyl)tetrazol-1-yl] acetic acid] was 23 nM; that for `O=C(O)Cn1nnnc1-c1sccc1O` [Example 2-42, [5-(3-hydroxy-2-thienyl)tetrazol-1-yl] acetic acid] was 20 nM; that for `C[S+]([O-])c1sccc1-c1nnnn1CC(=O)O` (centres unmarked) [Example 2-43, [5-(2-methylsulfinyl-3-thienyl)tetrazol-1-yl] acetic acid] was 300 nM.
